Laboratory results as given in patent US7208467B2, “Lipid-altering compositions for the treatment of infertility” (priority 2002, dated 2007).

Legend:
[1] = tested on: SR-BI; assay: Immunoblot of SR-BI expression in tissues of estrogen-treated rats; assay type: in vivo, rat
Description: Tissues of estrogen-treated rats were screened for expression of SR-BI as described above following treatment of rats with 17-α-ethylenyl estradiol (estrogen). The rats were treated for five consecutive days with subcutaneous injections of 5 mg/kg 17-α-ethylenyl estradiol in propylene glycol or with propylene glycol alone (sham-injected).

[2] = tested on: LDL receptor; assay: Immunoblot of LDL receptor expression in estrogen-treated rats; assay type: in vivo; conditions: rat, liver
[3] = tested on: HDL lipid uptake; assay: HDL lipid uptake in vivo after DiI-HDL injection in estrogen-treated rats; parameters: species or system rat; conditions: DiI-HDL 800 μg protein/kg into jugular vein, 1 hour
Description: For analysis of HDL lipid uptake in vivo, rats were anesthetized with nembutal or metafane before injection of DiI-HDL (800 μg protein/kg) into the left jugular vein. 1 hour later the anesthetized animals were perfused with oxygenated HBSS. Frozen sections (12 μm thick) of sucrose-infiltrated tissues were prepared. Tissue sections were viewed and photographed with a Zeiss photomicroscope III with the appropriate filter package.

[4] = Plasma total cholesterol and FPLC lipoprotein profile of PROBUCOL-fed mice; assay type: in vivo; conditions: for Reduction of plasma cholesterol levels: 0.5% PROBUCOL chow; for Average plasma total cholesterol (±SEM): 0.5% PROBUCOL-enriched chow
Description: (§1) • Lipoprotein analysis. Plasma, collected from Avertin anesthetized mice, was size fractionated by FPLC, and the total cholesterol in each fraction or in unfractionated plasma was determined as described previously (Rigotti, A., et al. 1997 Proc. Natl. Acad. Sci. USA. 94:12610–12615) or by using a commercial kit (Wako Chemical USA Inc., Richmond, Va., USA). For apoA-I KO mice, 500 μl of pooled plasma was used for FPLC analyses. • Animals. […] Opinl Lipidol. 11:123-131 (2000)), apoA-I KO (Kozarsky, et al., Nature 387414–417 (1997)) (C57BL/6; The Jackson Laboratory, Bar Harbor, Me., USA), and RAG-2 KO (mixed C57BL/6×129×BALB/c background; gift from Jianzhu Chen, Massachusetts Institute of Technology). Double SR-BI/apoA-I KO and SR-BI/RAG-2 KO mice were produced by (a) mating SR-BI KO males with apoA-I KO or RAG-2-KO females, (b) transferring the resulting embryos into Swiss Webster recipients, and (c) intercrossing the double heterozygous offspring.

[5] = tested on: SR-BI KO and wild-type female mice; assay: Fertility of female mice mated with wild-type males; assay type: in vivo
Description: as §1
Colonies were maintained by crossing double- KO males with females heterozygous for the SR-BI null mutation and homozygous for the apoA-I or RAG-2 mutation to optimize the low yield of SR-BI homozygotes. It has been possible to obtain only a few homozygous null SR-BI KO mice on an essentially pure C57BL/6 background (backcrossed nine times to pure C57BL/6 mice). Experiments with these (n=3; 4- month matings, no litters) and additional mixed background SR-BI KO mice (n=19) confirmed the extremely low fertility of female SR-BI KO mice. PCR was used for genotyping the various mutant mouse lines. The primers for analyses were as follows: for SR-BI, the primers were as described by Rigotti, et al., Proc. Natl. Acad. Sci. USA 94:12610–12615 (1997); for apoA-I, the following set of four primers were used: 5′ -[…]-3′ (SEQ ID NO:8), 5′-[…]-3′(SEQ ID NO:9), 5′-[…]-3′ (SEQ ID NO:10), and 5′-[…]-3 (SEQ ID NO:11)′ (sequences and protocols originally from the Jackson Laboratories), or primers 5′-[…]-3″ (SEQ ID NO: 12) and 5′-[…]-3′(SEQ ID NO:13); and for RAG-2, the primers were 5′-[…]-3″(SEQ ID NO:14) and 5′-[…]-3″ (SEQ ID NO:15) (kindly provided by Charles Whitehurst, Massachusetts Institute of Technology). All animal studies were approved by the Massachusetts Institute of Technology Committee on Animal Care. To test the fertility of genetically, surgically, or pharmacologically manipulated female mice, virgin females were housed continuously with wild-type males, and numbers of litters and pups were counted during the mating period. […] Otherwise shorter 1- to 2-month mating periods were used when the fertile females produced litters relatively quickly. • Ovary transplantation. Donor SR-BI KO or control wild-type mice (5–6 weeks of age) were sacrificed by cervical dislocation, and the ovaries were removed. Hosts (RAG-2 KO mice), 4–6 weeks of age, were anesthetized with 2.5% Avertin (intraperitoneally), and ovary transfer surgery was performed. In brief, ovaries of the host mice were removed from the surrounding ovarian bursa by cutting the side opposite to the ovarian hilus. Ovaries from the donor mice were then inserted into the ovarian bursa and the bursa closed with Vetbond tissue adhesive (3M Animal Care Products, St. Paul, Minn., USA). In sham ovary transplants (n=5), ovaries of SR-BI KO mice were removed and reinserted into the same mouse (either unilaterally when the contralateral oviduct was cut, n=1, or bilaterally, n=4). […]

[6] = estrogen-treated versus control rats
[7] = rat, 5 mg/kg subcutaneous for five consecutive days, versus sham-injected
[8] = PROBUCOL-fed SR-BI KO females, n=14, 1- to 2-month mating

Row | Molecule | SR-BI expressed in the liver [1, 6] | SR-BI in the ovaries [1, 6] | SR-BI expression in adrenal membranes [1, 7] | SR-BI levels in tissues showing trace signal (lung, testes, skin) [1, 7] | SR-BI expression (immunoblot compared with LDL receptor) ([1]; rat, estrogen-treated, liver) | LDL receptor expression [2] | DiI-HDL fluorescence in the ovaries [3] | Uptake of lipid into adrenal tissues [3] | Reduction of plasma cholesterol levels ([4]; SR-BI KO mice) | Average plasma total cholesterol (±SEM) ([4]; SR-BI KO mice, n=14) | Effect on apparent sizes of the HDLs ([4]; wild-type and SR-BI KO mice, FPLC) | Reduction of plasma cholesterol levels ([4]; wild-type mice) | Average plasma total cholesterol (±SEM) ([4]; wild-type mice, n=9) | Average time from mating to delivery ([5]; PROBUCOL-fed SR-BI KO females) | Average litter size [5, 8] | Percentage of females producing litters [5, 8] | Average litter size ([5]; PROBUCOL-fed wild-type females, n=9, 1- to 2-month mating) | Restoration of fertility ([5]; SR-BI KO females, treatment began 1–3.5 weeks before mating and continued throughout)
1 | 17-α-ethylenyl estradiol [estrogen] | significantly reduced levels | elevated levels | upregulation of SR-BI | no change in SR-BI levels | dramatically downregulated | tremendous upregulation | elevated levels | dramatically increased | – | – | – | – | – | – | – | – | – | –
2 | CC(C)(Sc1cc(C(C)(C)C)c(O)c(C(C)(C)C)c1)Sc1cc(C(C)(C)C)c(O)c(C(C)(C)C)c1 [PROBUCOL™, 4,4′-(isopropylidenedithio) bis(2,6-di-tert-butylphenol)] | – | – | – | – | – | – | – | – | approximately 49% | 107.8 ± 6.3 mg/dL | without substantially altering the apparent sizes of the HDLs | approximately 67% | 33.6 ± 3.4 mg/dL | 28.4 days | 5.7 | 93% | 5.3 | completely restored fertility
